Patent US6642250B2, “1,8-naphthyridin-2(1H)-one derivatives” (Grelan Pharmaceutical Co., Ltd., priority 1999, dated 2003)
Where two headings read alike, the source gives them in different places.

Columns and labels:
[1] = system: actively sensitized guinea pigs; assay: Inhibition of antigen-induced immediate asthmatic response (airway resistance, Konzett-Rossler method); type: in vivo, guinea pig; details: for inhibition in vivo at 3 mg/kg: Cavia porcellus, po, orally, 60 minutes prior to antigen-challenge, average of 3 animals, read-out: % Reduction of Increase in Airway Resistance; for % reduction of increase in airway resistance: oral administration at a dose of 1 mg/kg
Method: (1) Active Sensitization of Guinea Pigs
Male Hartley outbred guinea pigs were sensitized by administering intraperitoneally physiological saline (0.5 ml) containing ovalbumin (1 mg, antigen) and 5×10^9 inactivated Bordetella pertussis dead cells (adjuvant).
Eleven to thirteen days after the first sensitization, 0.05 ml of an ovalbumin solution (1 mg/ml) (ovalbumin is dissolved in physiological saline) was administered to the lateroabdominal region of each guinea pig intracutaneously. An establishment of sensitization was checked relying on cutaneous reaction. Only guinea pigs wherein significant reddening responses occurred 5 to 10 minutes later were employed in the next measurement test for airway resistance.
(2) Measurement for Airway Resistance in Actively Sensitized-Guinea Pigs
The guinea pigs (3 animals per group) actively sensitized in the above step (1) were employed to measure for their airway pressure according to Konzett-Rossler method (Arch. Exp. Path. Pharmakol., 195, 71 (1940)).
Thirteen days after the final sensitization, guinea pigs fasted overnight, and were on the next day anesthetized with a pentobarbital solution (60 mg/1.2 ml/kg, dissolved in physiological saline, intraperitoneal administration). After the guinea pigs were fixed in a supine position, their trachea was incised followed by insertion with one port of a 4-port cannula. Among the remaining 3 ports, 2 ports were connected to an artificial respirator (Model 683, Harvard). The animals were ventilated with 10 ml/kg of air per ventilation at a rate of 60 beats/min via the artificial respirator from the cannula. One port remainder was connected to a respiratory amplifier (AR-601G, Nihon Kohden, Japan) via an airflow resistance tube (TV-241T, Nihon Kohden, Japan) and a differential pressure transducer (TP-602T, Nihon Kohden, Japan) connected with a control box (RY-111S, Nihon Kohden, Japan). From a catheter inserted into a left carotid artery, blood pressures were monitored with a blood pressure measurement unit (AP641G, NEC Corp., Japan) via a blood pressure transducer (TP-300T, Nihon Kohden, Japan), and heart rates were recorded on a thermal recorder (WT-685G, Nihon Kohden, Japan), relying on blood pressure pulse waves after being led to a cardiograph unit (AT601G, Nihon Kohden, Japan).
After airway pressure became stable, an ovalbumin solution (1 mg/ml, dissolved in physiological saline) was administered at a dose of 1 ml/kg via a tube with which the right jugular vein of guinea pigs was cannulated. Each area under airway pressure-time curve (AUC) was obtained by measuring amplitudes of the airway pressure prior to the antigen-challenge, 1, 2, 3, 4, 5, 10, 15 and 20 minutes post-challenge, and each percent increase (%) in airway resistance was further calculated according to the following equation: [formula]
[…] Control groups received only 0.5% CMC—Na solution in an equivalent amount. The pentobarbital-anesthetization and tracheal incision were conducted 30 minutes prior to the antigen-challenge.
Each percent reduction of increase in airway resistance (each test compound-administered group versus control group) was calculated according to the equation given below. The results are shown in Table 2 wherein each value is an average of 3 animals. Rolipram as described in Assay Example 1 was used for the reference compound in this assay. [formula]
For a comparison with compounds as disclosed in JP, A, 63-159382 (1988), the percent reduction of increase in airway resistance was obtained for the compounds of the present invention (oral administration at a dose of 1 mg/kg), the compounds in Table 1 of JP, A, 63-159382 (1988) (oral administration at a dose of 1 mg/kg), and rolipram (reference compound; oral administration at a dose of 3 mg/kg), respectively, in the same assay manner as in the aforementioned Assay Example 2.

Female beagles = type: in vivo; details: fed female beagles, oral, emesis within 3 hours
Method: Female beagles (each group consisting of 3 dogs) as used herein were fed. One hour later, a suspension of each test compound in 0.5% CMC—Na solution was administered orally to the animals in a forced manner. […] Next, each maximum tolerance dose against emesis was obtained. […]

[2] = system: LPS-induced TNFα production in mouse peritoneal macrophages; assay: Inhibition of TNF-α production in LPS-stimulated macrophages; type: cell-based; details: Peritoneal macrophage, LPS 0.1 μg/ml, 4 hours
Method: In order to measure inhibitory activity on LPS-induced TNFα production in mouse peritoneal macrophages according to Eur. J. Pharmacol., 230, 9-14 (1993), the following assay was employed. 1) Preparation of Mouse Peritoneal Macrophages Ten percent proteose peptone (2 ml/animal) was administered intraperitoneally to male C3H/HeN mice (6- to 8-week-old) for inducing peritoneal macrophages. Four days after the proteose peptone administration, mice were sacrificed by the dislocation of cervical vertebrate, bled with cutting of their carotid artery, douched intraperitoneally with ice-cooled RPMI 1640 (6 ml), massaged, and lavage fluids wherein peritoneal exudate cells suspended were harvested. The resulting cell suspension was centrifuged at 200×g, and obtained cell pellets were treated with a Tris-ammonium buffer for 1 minute to hemolyze erythrocyte contaminants. The resulting cells were washed twice with 10% FBS/RPMI 1640, resuspended, and seeded on 96-well plates (Sumitomo Bakelite, Japan) at 5×10^5 cells/0.2 ml/well. After pre-incubation for 2 hours in an atmosphere of 5% CO2/95% air, each well was rinsed 3 times with PBS(−) to remove non-adhesive cells. 2) Cell Treatment Each test compound was dissolved in DMSO, and then in 10% FBS/RPMI 1640 to make the final DMSO concentration 0.1%. The resultant test compound solution was used herein. After pre-incubation for 0.5 hr in the above test compound solution, an aliquot of macrophages prepared in the above (1) was admixed with LPS (E. coli serotype 0127: B8; Sigma) to adjust the final LPS concentration to 0.1 μg/ml. Four hours later, culture supernatants were harvested and stored at −80° C. Amounts of TNFα in the culture supernatants were measured with a mouse TNFα ELISA kit (Quantikine/trade name; R & D Systems) according to manuals attached to the kit. For control groups, an aliquot of macrophages prepared in the above (1) was admixed with LPS to adjust the final LPS concentration to 0.1 μg/ml and then treated in the same manner as aforementioned. The resultant samples were used in obtaining the concentration of each test compound required for 50% inhibition (IC50) to each control group.

[3] = read-out: IC50 for inhibition of TNF-α production
[4] = read-out: IC50 for inhibition of TNF-α production (molar)

| SMILES | inhibition in vivo at 3 mg/kg [1] [%] | Maximum Tolerance Dose against Emesis (Female beagles) [mg/kg] | IC50 [2, 3] [µg/mL] | IC50 [2, 4] [nM] | % reduction of increase in airway resistance [1] [%] |
| --- | --- | --- | --- | --- | --- |
| COc1ccc(C2CNC(=O)C2)cc1OC1CCCC1 (single isomer, unassigned) [Rolipram, rolipram, reference compound] | 65 | <0.1 | 0.37 | ~1300 | – |
| O=c1c(Cc2cccnc2)cc2cccnc2n1-c1cccc([N+](=O)[O-])c1 [Example No. 2, 1-(3-Nitrophenyl)-3-(pyridin-3-ylmethyl)-1,8-naphthyridin-2(1H)-one] | 64 | – | – | – | – |
| O=c1c(CCc2cccnc2)cc2cccnc2n1-c1cccc([N+](=O)[O-])c1 [Example No. 5, 1-(3-Nitrophenyl)-3-[2-(pyridin-3-yl)ethyl]-1,8-naphthyridin-2(1H)-one] | 90 | – | – | – | 86 |
| O=c1c(CCc2ccncc2)cc2cccnc2n1-c1cccc([N+](=O)[O-])c1 [Example No. 6, 1-(3-Nitrophenyl)-3-[2-(pyridin-4-yl)ethyl]-1,8-naphthyridin-2(1H)-one] | 87 | – | – | – | – |
| O=c1c(CCCc2cccnc2)cc2cccnc2n1-c1cccc([N+](=O)[O-])c1 [Example No. 7, 1-(3-Nitrophenyl)-3-[3-(pyridin-3-yl)propyl]-1,8-naphthyridin-2(1H)-one] | 95 | – | – | – | – |
| O=c1c(CCCc2ccncc2)cc2cccnc2n1-c1cccc([N+](=O)[O-])c1 [Example No. 8, 1-(3-Nitrophenyl)-3-[3-(pyridin-4-yl)propyl]-1,8-naphthyridin-2(1H)-one] | 88 | 0.3 | 0.34 | ~880 | 88 |
| CSc1cccc(-n2c(=O)c(CCCc3ccncc3)cc3cccnc32)c1 [Example No. 10, 1-(3-Methylthiophenyl)-3-[3-(pyridin-4-yl)propyl]-1,8-naphthyridin-2(1H)-one] | 82 | – | – | – | – |
| O=c1c(CCCCc2cccnc2)cc2cccnc2n1-c1cccc([N+](=O)[O-])c1 [Example No. 14, 1-(3-Nitrophenyl)-3-[4-(pyridin-3-yl)butyl]-1,8-naphthyridin-2(1H)-one] | 92 | – | – | – | – |
| O=c1c(CCCCCc2cccnc2)cc2cccnc2n1-c1cccc([N+](=O)[O-])c1 [Example No. 16, 1-(3-Nitrophenyl)-3-[5-(pyridin-3-yl)pentyl]-1,8-naphthyridin-2(1H)-one] | 96 | – | – | – | – |
| O=c1c(CCCc2ccncc2)cc2cccnc2n1-c1cccnc1 [Example No. 23, 1-(Pyridin-3-yl)-3-[3-(pyridin-4-yl)propyl]-1,8-naphthyridin-2(1H)-one] | 90 | – | – | – | – |
